Columns and labels:
rat, arterial occlusion = settings: i.c.v., 50 μg per rat at 1 h after arterial occlusion; cited from earlier work
[1] = test system: mixed cortical and striatal neurons; assay: MTS assay (cell viability) in neuronal cell culture; assay type: cell-based
Method: Neuronal Cell Culture. Mixed cortical and striatal neurons fromembryonic day 17 male Sprague-Dawley rats (tissue obtained from NIH) were seeded into poly-D-lysine coated 96-well plates at density of 50,000 cells/well and initially cultured at 37° C., 5% CO2, in neurobasal medium (NB) with B27 supplement (Invitrogen) containing full strength of AOs to obtain highly enriched (95%) neurons. Since AOs, including vitamin E, vitamin E acetate, superoxide dismutase (SOD), catalase (CAT), and GSH, are additives to culture medium, reduction of AO concentration in culture medium provides an approach to determine the level of OS involvement in a neurotoxic process. In our study, the culture medium was replaced at a 50% ratio with NB plus B27 minus AOs twice at days 7 and 9 to set AO concentrations as 50% and 25%, respectively. At 16 days in vitro (d.i.v.), a fraction of the culture medium was harvested for lactate dehydrogenase (LDH) assay, and then AO concentration was reduced to 12.5% and cultured for a further 5 hours prior to ending the experiment.
Cell Insults and Treatments. Determination of concentration for each anticancer drug in our experiments was based on its reported concentration in human cerebral spinal fluid (CSF) in chemotherapy, literature report of its neurotoxicity in culture, and our preliminary in vitro experimental data. At 13 d.i.v., the neuronal cell cultures were insulted with 100 μM of MTX (M9929, Sigma), 25 μM of 5-FU (F6627, Sigma), or 3.5 μM of CDDP (sc-200896, Santa Cruz) for 3 days in absence or presence of PAN 811.Cl.H2O. For ROS examination, the neurons were insulted with both 100 μM of MTX and 25 μM of 5-FU by 15 d.i.v. PAN-811.Cl.H2O was added to cultures to final concentrations of 1.25, 2.5, 5, and 10 μM at the same time as addition of the anticancer drugs. For cancer cell lines, the cells were insulted by the second day of cell seeding with the same concentration of MTX, 5-FU, or CDDP as used in neuronal culture in the absence or presence of 10 μM PAN-811.Cl.H2O for another 3 days.
Quantitative Assays and Morphological Assessment. Cell membrane integrity and mitochondrial function of either neurons or cancer cells were measured with LDH and 3-(4,5-dimethylthiazol-2-yl)-5-(3-carboxymethoxyphenyl)-2-(4-sulfophenyl)-2H-tetrazolium [MTS] analyses, respectively. The latter has been used to quantify cell survival. For the LDH assay, a mixture of a 35 μL aliquot of culture supernatant and 17.5 μL of Mixed Substrate, Enzyme and Dye Solutions (Sigma) was incubated at room temperature (RT) for 30 minutes. For the MTS assay, 10 μL of MTS reagent (Promega) was added to a culture well containing neurons in 50 μL of medium. The preparations were incubated at 37° C. for 2 hours. The preparations for both assays were then spectrophotometrically measured at 490 nm using a 96-well plate reader (Mode 550, Bio-Rad). Neuronal cell death was morphologically determined based on the integrity of the cell soma and continuity of neuronal processes. The change in number of cancer cells was judged directly by cell density. Cells were photographed under an inverted phase contrast microscope (IX 70, Olympus) using 10× or 20× objective.
Data Analysis. Data were generated from 4-6 replicate wells, expressed as mean±standard deviation (SD), and statistically evaluated at a significance level of 1% with one factor ANOVA or Student's t-test by using software VASSARSTATS (http://vassarstats.net/) followed by the Tukey HSD test. Figure symbols are as follows: #, P<0.05, and ##, P<0.01, compared with control; *, P<0.05, and **, P<0.01, compared with the insulted group; §§, P<0.01, compared with PAN-811 treated group by Student's t-test.

[2] = test system: hypoxia-induced neuronal cell death; settings: 1.2 μM; cited from earlier work
[3] = 500 μM diphenylpicrylhydrazyl, cell free; cited from earlier work
[4] = test system: intramitochondrial ROS in neurons; assay: ROS examination with DHR 123 in neurons; assay type: cell-based, Sprague-Dawley rats; settings: 10 μM PAN-811; 100 μM MTX and 25 μM 5-FU; 1 day
Text: Neuronal Cell Culture. […] Since AOs, including vitamin E, vitamin E acetate, superoxide dismutase (SOD), catalase (CAT), and GSH, are additives to culture medium, reduction of AO concentration in culture medium provides an approach to determine the level of OS involvement in a neurotoxic process. In our study, the culture medium was replaced at a 50% ratio with NB plus B27 minus AOs twice at days 7 and 9 to set AO concentrations as 50% and 25%, respectively. […] Cell Insults and Treatments. Determination of concentration for each anticancer drug in our experiments was based on its reported concentration in human cerebral spinal fluid (CSF) in chemotherapy, literature report of its neurotoxicity in culture, and our preliminary in vitro experimental data. […] For ROS examination, the neurons were insulted with both 100 μM of MTX and 25 μM of 5-FU by 15 d.i.v. […] ROS Examination. […] Fluorescence was photographed by using a fluorescentmicroscope and quantified by excitation at 485 nm and emission at 520 nm using a 96-well plate reader (Model 550, Bio-Rad). […] Data were generated from 4-6 replicate wells, expressed as mean±standard deviation (SD), and statistically evaluated at a significance level of 1% with one factor ANOVA or Student's t-test by using software […] […]

[5] = test system: staurosporine-induced apoptosis; settings: cited from earlier work

SMILES: NC(=S)N/N=C/c1ncccc1N [PAN-811, 3-aminopyridine-2-carboxaldehyde thiosemicarbazone]
- reduction of infarct volume (rat, arterial occlusion): 59%
- inhibition of CDDP-induced MTS reduction ([1]; 10 μM PAN-811, 3.5 μM CDDP, 12.5% AO): 48%
- 5-FU-induced MTS reduction ([1]; 10 μM PAN-811, 25 μM 5-FU, 12.5% AO): completely blocked
- 5-FU- or CDDP-induced MTS reduction, dose dependence ([1]; neurons in 12.5% AO, PAN-811 1.25-10 μM): dose-dependently inhibited
- hypoxia-induced neuronal cell death [2]: completely halted
- reduction of stable free radical diphenylpicrylhydrazyl [3]: 70%
- suppression rate of increased ROS (DHR123) [4]: 62.3%
- staurosporine-induced apoptosis [5]: prevents

Source: patent US10525044B2, “Treatment for chemotherapy-induced peripheral neuropathy” (priority 2013, dated 2020)
